Results published in patent US12637468B2, “Substituted [1,2,4]triazolo[4,3-b]pyridazines as GABAA receptor modulators” (SHANGHAI SIMR BIOTECHNOLOGY CO., LTD., priority 2019, dated 2026).

experiment: Rat liver microsome stability (RLM) experiment; assay type: in vitro ADME; details: rat liver microsomal stability, Table 4; 0.5 mg protein/mL, NADPH, 37° C., 0-45 min
Method: Effect embodiment 3 Rat liver microsome stability (RLM) experiment
Rat liver microsomes (Xenotech, item No. R1000, lot No. 1310030), 100 mM potassium phosphate buffer solution (pH 7.4), 10 mM magnesium chloride.
Compound preparation: 5 μL of compound DMSO mother liquor (10 mM) was added to 495 μL of methanol to obtain an intermediate solution with a compound concentration of 100 μM. Then 50 μL of the intermediate solution was taken and dissolved in 450 μL of potassium phosphate buffer solution to obtain a test solution with a final concentration of 10 μM.
NADPH regeneration system (concentration of isocitrate dehydrogenase 1 unit/mL).
Liver microsomes (final concentration 0.5 mg protein/mL).
Reaction termination solution: cold acetonitrile containing 100 ng/mL Tolbutamide and 100 ng/mL Labetalol as an internal standard.
• (1) Preparation of buffer solution: • Buffer solution A: 1.0 L of 0.1 M potassium phosphate buffer solution containing 1.0 mM EDTA • Buffer solution B: 1.0 L of 0.1 M dipotassium phosphate buffer solution containing 1.0 mM EDTA • Buffer solution C: 0.1 M potassium phosphate buffer, 1.0 mM EDTA, pH 7.4, titrated with 700 mL of buffer solution B and buffer solution A, monitored by pH meter. • (2) Preparation of reference substance (ketanserin) and concentration of administration solution of the test substance:
[…]: […] 10 mM DMSO reference substance stock solution and test substance stock solution were added to 190 μL of ACN, respectively. 1.5 μM administration solution (containing 0.75 mg/mL liver microsomes): […] administration solution and 18.75 μL of 20 mg/mL liver microsomes were added to 479.75 μL of buffer C on a wet ice. • (3) NADPH was added to buffer solution C to obtain a NADPH stock solution (6 mM). • (4) 30 μL of 1.5 μM administration solution (containing 0.75 mg/mL of liver microsomes) was taken on the wet ice and added to the wells of the test plate at different time points (0-, 5-, 15-, 30-, 45-min), respectively. • (5) Firstly, 135 μL of ACN containing IS was added to the wells of a 0 min test plate, and then 15 μL of the NADPH stock solution (6 mM) was added. • (6) The test plate at other time points and the NADPH stock solution were pre-heated in a 37° C. water bath for 5 minutes. • (7) 15 μL of the NADPH stock solution (6 mM) was taken and added to a pre-incubated test plate, and the reaction was started and timed. • (8) At 5 min, 15 min, 30 min and 45 min, 135 μL of CAN containing IS was added to the corresponding test plate respectively, and the test was completed. • (9) Test plates were shaken with a shaker (IKA, MTS 2/4) for 10 min (600 rpm/min) and then centrifuged for 15 min (Thermo Multifuge×3R, 5594 g). • (10) 50 μL of supernatant from each well was added to a 96-well sample plate containing 50 μL of ultrapure water (Millipore, ZMQS50F01), and the samples were analyzed by LC/MS.

Row | Structure (SMILES) | RLM
1 | COc1cc2nnc(-c3cc(C)on3)n2nc1OCc1ccc2c(n1)CCN(C1COC1)C2 [Embodiment 84, 3-(7-Methoxy-6-((6-(oxetan-3-yl)-5,6,7,8-tetrahydro-1,6-naphthyridin-2-yl)methoxy)-[1,2,4]triazolo[4,3-b]pyridazin-3-yl)-5-methylisoxazole] | 0 µL/min/mg
2 | COc1cc2nnc(-c3cc(C)on3)n2nc1OCc1ccc(C2(F)CN(C3COC3)C2)cn1 [Embodiment 128] | 6 µL/min/mg
3 | COCCCOc1ccc(COc2nn3c(-c4noc(C)n4)nnc3cc2OC)nn1 [Embodiment 129] | 14 µL/min/mg
4 | COCc1ccc(COc2nn3c(-c4cc(C)on4)nnc3cc2OC)nn1 [Embodiment 151] | 1 µL/min/mg
5 | COc1cc2nnc(-c3cc(C)on3)n2nc1OCc1ccc(OC2CCOCC2)nn1 [Embodiment 152] | 23 µL/min/mg
6 | COc1cc2nnc(-c3cc(C)on3)n2nc1OCc1ccc(OC2COC2)nn1 [Embodiment 153] | 5 µL/min/mg
7 | COc1cc2nnc(-c3cc(C)on3)n2nc1OCc1ccc(OC2CCOC2)nn1 (centres unmarked) [Embodiment 154] | 1 µL/min/mg
8 | COc1cc2nnc(-c3cc(C)on3)n2nc1OCc1ccc2c(n1)CN(C)C2 [Embodiment 160, 3-(7-Methoxy-6-((6-methyl-6,7-dihydro-5H-pyrrolo[3,4-b]pyridin-2-yl)methoxy)-[1,2,4]triazolo[4,3-b]pyridazin-3-yl)-5-methylisoxazole] | 6 µL/min/mg
9 | COCCOCc1ccc(COc2nn3c(-c4cc(C)on4)nnc3cc2OC)nn1 [Embodiment 166] | 0 µL/min/mg
10 | COc1cc2nnc(-c3cc(C)on3)n2nc1OCc1ccc2c(n1)CCN(C(CO)CO)C2 [Embodiment 185] | 9 µL/min/mg
11 | COc1cc2nnc(-c3cc(C)on3)n2nc1OCc1ccc2c(n1)CCN(C1CCOCC1)C2 [Embodiment 186] | 22 µL/min/mg
12 | COc1cc2nnc(-c3cc(C)on3)n2nc1OCc1ccc2c(n1)CCN(Cc1cc(C)on1)C2 [Embodiment 187] | 15 µL/min/mg
13 | COCc1cn2nc(COc3nn4c(-c5cc(C)on5)nnc4cc3OC)ccc2n1 [Embodiment 213] | 10 µL/min/mg
14 | COc1cc2nnc(-c3cc(C)on3)n2nc1OCc1ccc2c(n1)CN(C1CCOCC1)C2 [Embodiment 253] | 10 µL/min/mg
